How the values were obtained:
[1] = test system: human embryonic kidney (HEK293-T) cell line; experiment: MTT cytotoxicity assay, HEK293-T; conditions: Homo sapiens, HEK-293T, read-out: IC50 Hek293-T
[2] = MTT cytotoxicity assay, HEK293-T; conditions: human, HEK293-T cells
[3] = test system: NO generated from nitric oxide synthase (NOS); experiment: Inhibitory activity against NO generated from NOS (EnzyChrom kit); assay type: biochemical; conditions: mean ± SD, 1-50 µM
Description: (§1) A nitric oxide synthase (NOS) assay was performed following the procedure recommended by the manufacturer as outlined in the screening kit (Catalogue No. EINO-100; EnzyChrom). Various concentrations (1, 5, 10, 25 and 50 µM) of the compounds 3a, 3c, 3f, 3i, 3l, 3n and 3p and the reference standard, ascorbic acid, were prepared. The enzyme solution (12.5 U/mL NOS, 10 µL), assay buffer (25 µL) and test samples (5 µL) were incubated at room temperature for 15 min. After pre-incubation, 10 µL of reaction mix was added and incubated at 37 °C for 60 min. A 200 µL quantity of NO detection reagent was added, the detection reaction was run at 37 °C for 60 min, and absorbance was determined at a wavelength of 540 nm using an Elisa plate reader (Varioskan Flash, ThermoFisher Scientific, Vantaa, Finland). The average of three readings was used to calculate the NOS percentage inhibition using the following formula: % Inhibition=1−ΔOD Test Compd/ΔOD No Inhibitor ×100%
The IC50 values and standard deviation values were determined from nonlinear regression dose–response curve and compared with the results in GraphPad prism.

[4] = test system: nitric oxide synthase (NOS); experiment: Kinetic study on inhibitory activity of NOS; assay type: biochemical; conditions: seven concentrations 1-10.0 μM; Figure 3; read-out: IC50 NOS inhibition (kinetic study)
Description: as §1, with “2.5, 4.0, 5.5, 7.0, 8.5” for “5, 10, 25”, “10.0” for “50”, “3i” for “3a, 3c, 3f, 3i, 3l, 3n and 3p”, “DPI,” for “ascorbic acid,”, “uL),” for “µL),”, “formula in Section 2.6.3” for “following formula: % Inhibition=1−ΔOD Test Compd/ΔOD No Inhibitor ×100%”

human α-amylase = target: T1, human α-amylase (Homo sapiens, UniProt P04746); experiment: α-amylase inhibitor screening kit assay; assay type: biochemical; conditions: mean ± SD, triplicate; tested at 1, 5, 10, 25, 50 µM
T1 construct: purchased Abcam ab283391
T1 sequence (P04746 16-511): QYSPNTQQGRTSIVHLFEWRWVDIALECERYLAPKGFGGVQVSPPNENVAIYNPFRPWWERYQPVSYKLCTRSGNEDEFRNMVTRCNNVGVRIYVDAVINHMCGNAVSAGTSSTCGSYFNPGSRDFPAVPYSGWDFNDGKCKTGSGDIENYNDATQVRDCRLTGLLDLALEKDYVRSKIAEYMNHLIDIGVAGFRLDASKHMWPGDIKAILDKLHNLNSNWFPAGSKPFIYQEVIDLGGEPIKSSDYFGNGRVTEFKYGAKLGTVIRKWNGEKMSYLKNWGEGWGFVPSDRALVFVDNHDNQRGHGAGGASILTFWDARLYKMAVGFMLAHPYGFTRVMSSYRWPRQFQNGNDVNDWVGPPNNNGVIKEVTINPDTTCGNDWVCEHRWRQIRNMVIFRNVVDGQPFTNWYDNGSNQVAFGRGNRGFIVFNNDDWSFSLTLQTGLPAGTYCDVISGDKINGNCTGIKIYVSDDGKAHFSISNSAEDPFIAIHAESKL
Description: The α-amylase assay was performed in triplicate, using a 96-well plate following the procedure recommended by the manufacturer as outlined in the α-amylase inhibitor Screening Kit (Catalogue No. ab283391; Abcam). […] The average values obtained from the absorbance readings were used to determine the IC50 and standard deviation values in GraphPad prism from nonlinear regression dose–response curves.

[5] = test system: breast cancer (MCF-7) cell line; experiment: MTT cytotoxicity assay, MCF-7; conditions: for Cell viability percentage, MCF-7: Table S2
Description: Cells were cultured in sterile Dulbecco’s Minimal Essential Medium (DMEM, Gibco) supplemented with 10% fetal bovine serum (FBS) and 1% penicillin-streptomycin solution. […] Cell counting was carried out using a handheld automated cell counter (Scapter 3.0™, Merck, Burlington, MA, USA) and seeded (1 × 10^4 cells/well) into a 96-well plate. After 24 h, the cells were treated with different concentrations (1, 5, 10, 25 and 50 µM) of the test compounds and reference standards prepared in DMEM. The MTT solution (20 μL) prepared in PBS (5 mg/mL) was added to all the wells, and the plates were incubated for 4 h, followed by 1 h incubation with 100 µL of dimethyl sulfoxide (DMSO) to dissolve the formazan crystals. Untreated cells and 5% DMSO were included in the experiment as negative controls. All experiments were performed in triplicate. The plates were read at 570 nm at a reference wavelength of 630 nm using an ELISA plate reader (Varioskan Flash, ThermoFisher Scientific, Vantaa, Finland). The percentage of cell viability was calculated using the following formula, Cell viability %=At/Ab×100 where At represents the absorbance value of test compound and Ab the absorbance value of the blank. […] The data were expressed as means ± SD.

[6] = target: T2, α-Glucosidase type 1 from baker's yeast (Saccharomyces cerevisiae, UniProt P53341); experiment: biochemical; conditions: IC50 α-Glucosidase, mean ± SD, triplicate; tested at 1, 5, 10, 25, 50 µM
T2 construct: purchased Sigma Aldrich (Pty) Ltd. G5003
T2 sequence (P53341 whole entry): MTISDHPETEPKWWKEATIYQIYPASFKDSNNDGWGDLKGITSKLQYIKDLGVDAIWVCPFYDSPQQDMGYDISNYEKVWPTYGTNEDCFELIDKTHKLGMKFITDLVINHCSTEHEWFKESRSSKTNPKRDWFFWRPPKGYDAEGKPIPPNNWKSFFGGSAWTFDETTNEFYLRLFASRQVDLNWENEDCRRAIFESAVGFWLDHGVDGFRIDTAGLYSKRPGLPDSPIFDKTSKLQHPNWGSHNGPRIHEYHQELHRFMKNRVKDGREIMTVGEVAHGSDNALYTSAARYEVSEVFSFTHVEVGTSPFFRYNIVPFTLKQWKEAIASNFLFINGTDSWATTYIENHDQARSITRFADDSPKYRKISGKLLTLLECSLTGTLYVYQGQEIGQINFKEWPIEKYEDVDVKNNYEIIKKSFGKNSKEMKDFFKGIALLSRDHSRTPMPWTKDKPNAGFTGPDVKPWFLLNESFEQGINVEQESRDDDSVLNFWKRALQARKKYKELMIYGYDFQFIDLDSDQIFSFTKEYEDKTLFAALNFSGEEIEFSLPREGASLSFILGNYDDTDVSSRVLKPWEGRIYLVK

CC1=[N+]([O-])C(c2ccccc2)Nc2c(I)cc(Br)cc21 (centres unmarked) [Compound 3i]
IC50 [1]: 34.9 ± 0.13 µM | viability at 1 µM [2]: 34.9% | viability at 5 µM [2]: 33.9% | viability at 10 µM [2]: 33.8% | viability at 25 µM [2]: 29.8% | viability at 50 µM [2]: 26.9% | IC50 [3]: 29.08 ± 0.004 µM | IC50 [4]: 6.75 ± 0.002 µM | IC50 (human α-amylase): 1.18 ± 0.06 µM | Cell viability percentage, MCF-7 ([5]; Conc. 1 (µM per method)): 24,1184% | Cell viability percentage, MCF-7 ([5]; Conc. 5 (µM per method)): 22,006% | Cell viability percentage, MCF-7 ([5]; Conc. 10 (µM per method)): 22,1058% | Cell viability percentage, MCF-7 ([5]; Conc. 25 (µM per method)): 19,5775% | Cell viability percentage, MCF-7 ([5]; Conc. 50 (µM per method)): 18,1803% | IC50 ([5]; Homo sapiens, MCF7, read-out: IC50 MCF-7): 15.43 ± 0.06 µM | melting point: 162 to 164 °C | IC50 [6]: 1.01 ± 0.05 µM
